From patent US20200115357A1, “LIVER X RECEPTORS (LXR) MODULATORS” (Phenex-FXR GmbH, priority 2017, published 2020) come the findings set out here.

SMILES strings stand for the structures.

Assay [1] has as its target T1, GST-LXRβ ligand-binding domain (Homo sapiens, UniProt P55055, DUP175-175).
T1 construct: amino acids 156-461; NP009052; made in house; host or cells: E. coli
T1 sequence (P55055 with tags, fused parts or gaps DUP175-175): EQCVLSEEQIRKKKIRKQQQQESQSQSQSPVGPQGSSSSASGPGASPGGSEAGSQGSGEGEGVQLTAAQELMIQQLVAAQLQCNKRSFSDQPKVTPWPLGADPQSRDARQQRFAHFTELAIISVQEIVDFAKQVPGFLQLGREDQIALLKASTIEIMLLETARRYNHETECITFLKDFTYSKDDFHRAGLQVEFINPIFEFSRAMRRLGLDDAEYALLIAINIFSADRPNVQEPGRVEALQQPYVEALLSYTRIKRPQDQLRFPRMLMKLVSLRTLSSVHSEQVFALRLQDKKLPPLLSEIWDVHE
Nature of the assay: TR-FRETβ activity assay (LXRβ-LBD / NCoA3 coactivator peptide, prestimulated with 24(S)-25-epoxycholesterol). Format: biochemical. Further details: key to behavior in FRET assay: ag=agonist; ia=inverse agonist. As to conditions: for EC50: 1 μM 24(S)-25-epoxycholesterol as prestimulating agonist, read-out: FRETβ activity range (EC50); for behavior in FRET assay: agonist or inverse agonist. As to the method:
The tested compounds were usually dissolved, tested and stored as 20 mM stock solutions in DMSO. […] Sulfonyl acetic acid derivatives are shelf stable as solid at rt for long time as reported by Griesbrecht et al. (Synlett 2010:374) or Faucher et al. (J. Med. Chem. 2004; 47:18). TR-FRETβ Activity Assay Recombinant GST-LXRβ ligand-binding domain (LBD; amino acids 156-461; NP009052; SEQ ID NO:2) was expressed in E. coli and purified via gluthatione-sepharose affinity chromatography. N-terminally biotinylated NCoA3 coactivator peptide (SEQ ID NO:1) was chemically synthesized (Eurogentec). […] Finally, a detection mix was added containing anti GST-Tb cryptate (CisBio; 610SAXLB) and Streptavidin-XL665 (CisBio; 610SAXLB) as fluorescent donor and acceptor, respectively, as well as the coactivator peptide and LXRβ-LBD protein (SEQ ID NO:2). The reaction was mixed thoroughly, equilibrated for 1 h at 4° C. and vicinity of LXRβ and coactivator peptide was detected by measurement of fluorescence in a VictorX4 multiplate reader (PerkinElmer Life Science) using 340 nm as excitation and 615 and 665 nm as emission wavelengths. Assays were performed in triplicates. Final Assay Concentrations of Components: 240 mM KCl, 1 μg/μL BSA, 0.002% Triton-X-100, […] anti GST-Tb cryptate, 2.5 ng/μL Streptavidin-XL665, coactivator peptide (400 nM), LXRβ protein ([…], i.e. 76 nM)

Another assay deals with T2, LXRα full length (FL) (Homo sapiens, UniProt Q13133).
T2 construct: the full length (FL) proteins of LXRα (amino acids 1-447); NP005684; expressed in transfected cells; host or cells: HEK293
T2 sequence (Q13133 1-447): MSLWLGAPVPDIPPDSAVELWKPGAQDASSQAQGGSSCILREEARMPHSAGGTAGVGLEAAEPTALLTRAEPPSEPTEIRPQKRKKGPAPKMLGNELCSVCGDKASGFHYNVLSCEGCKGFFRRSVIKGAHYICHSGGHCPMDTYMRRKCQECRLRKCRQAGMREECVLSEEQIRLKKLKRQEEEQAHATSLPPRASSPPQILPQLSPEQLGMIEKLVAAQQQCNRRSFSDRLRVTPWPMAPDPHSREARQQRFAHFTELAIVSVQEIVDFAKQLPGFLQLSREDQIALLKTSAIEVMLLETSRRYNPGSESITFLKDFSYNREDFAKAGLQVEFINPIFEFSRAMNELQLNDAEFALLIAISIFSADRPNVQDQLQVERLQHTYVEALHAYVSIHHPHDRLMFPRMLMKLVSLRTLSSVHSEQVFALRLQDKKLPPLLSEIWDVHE
Nature of the assay: LXR Gal4 reporter transient transfection assay (M2H), Gal4α FL. To be noted: HEK293 cells; read-out: M2H Gal4α FL activity range (EC50). Format: cell-based. The protocol: (§1) The tested compounds were usually dissolved, tested and stored as 20 mM stock solutions in DMSO. Since sulfonyl acetic acid derivatives tend to decarboxylate under these conditions, these stock solutions were prepared, tested and stored as 20 mM DMSO stock solutions containing 100 mM trifluoroacetic acid (5 equivalents). Sulfonyl acetic acid derivatives are shelf stable as solid at rt for long time as reported by Griesbrecht et al. (Synlett 2010:374) or Faucher et al. (J. Med. Chem. 2004; 47:18).
(§2) LXR Gal4 Reporter Transient Transfection Assays
(§3) LXRα and LXRβ activity status was determined via detection of interaction with coactivator and corepressor proteins in mammalian two-hybrid experiments (M2H). For this, via transient transfection the full length (FL) proteins of LXRα (amino acids 1-447; NP005684; SEQ ID NO:7) or LXRβ-(amino acids 1-461; NP009052; SEQ ID NO:8) or the ligand-binding domains (LBD) of LXRα (amino acids 155-447 SEQ ID NO:3) or LXRβ (amino acids 156-461; SEQ ID NO:4) were expressed from pCMV-AD (Stratagene) as fusions to the transcriptional activation domain of NFkB. As cofactors, domains of either the steroid receptor coactivator 1 (SRC1; amino acids 552-887; SEQ ID NO:5) or of the corepressor NCoR (amino acids 1903-2312 SEQ ID NO:6) were expressed as fusions to the DNA binding domain of the yeast transcription factor GAL4 (from pCMV-BD; Stratagene). Interaction was monitored via activation of a coexpressed Firefly Luciferase Reporter gene under control of a promoter containing repetitive GAL4 response elements (vector pFRLuc; Stratagene). Transfection efficiency was controlled via cotransfection of constitutively active pRL-CMV Renilla reniformis luciferase reporter (Promega). HEK293 cells were grown in minimum essential medium (MEM) with 2 mM L-glutamine and Earle's balanced salt solution supplemented with 8.3% fetal bovine serum, 0.1 mM non-essential amino acids, 1 mM sodium pyruvate, at 37° C. in 5% CO2. 3.5×10^4 cells/well were plated in 96-well cell culture plates in growth medium supplemented with 8.3% fetal bovine serum for 16-20 h to ˜90% confluency. For transfection, medium was taken off and LXR and cofactor expressing plasmids as well as the reporter plasmids are added in 30 μL OPTIMEM/well including polyethylene-imine (PEI) as vehicle. Typical amounts of plasmids transfected/well: pCMV-AD-LXR (5 ng), pCMV-BD-cofactor (5 ng), pFR-Luc (100 ng), pRL-CMV (0.5 ng). Compound stocks were prepared in DMSO, prediluted in MEM to a total volume of 120 μL, and added 4 h after addition of the transfection mixture (final vehicle concentration not exceeding 0.2%). Cells were incubated for additional 16 h, lysed for 10 min in 1× Passive Lysis Buffer (Promega) and Firefly and Renilla luciferase activities were measured sequentially in the same cell extract using buffers containing D-luciferine and coelenterazine, respectively. Measurements of luminescence were done in a BMG-Iuminometer.

The next assay addresses T3, LXRβ full length (FL) (Homo sapiens, UniProt P55055, DUP175-175).
T3 construct: the full length (FL) proteins of LXRα (amino acids 1-447); NP005684; NP009052; expressed in transfected cells; host or cells: HEK293
T3 sequence (P55055 with tags, fused parts or gaps DUP175-175): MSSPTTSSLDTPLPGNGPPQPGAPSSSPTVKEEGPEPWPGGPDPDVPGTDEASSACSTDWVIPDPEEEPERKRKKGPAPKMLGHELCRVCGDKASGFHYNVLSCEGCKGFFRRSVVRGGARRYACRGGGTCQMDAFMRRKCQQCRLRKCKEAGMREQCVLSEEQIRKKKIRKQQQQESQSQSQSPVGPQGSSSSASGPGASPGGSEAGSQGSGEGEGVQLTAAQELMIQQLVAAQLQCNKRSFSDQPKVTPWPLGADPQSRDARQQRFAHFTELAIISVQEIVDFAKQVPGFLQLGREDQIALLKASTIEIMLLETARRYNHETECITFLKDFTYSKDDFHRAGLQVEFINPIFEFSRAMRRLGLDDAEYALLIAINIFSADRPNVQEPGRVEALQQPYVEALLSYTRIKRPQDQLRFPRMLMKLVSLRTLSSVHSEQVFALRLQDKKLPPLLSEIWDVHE
Nature of the assay: LXR Gal4 reporter transient transfection assay (M2H), Gal4β FL. Format: cell-based. As to conditions: HEK293 cells; read-out: M2H Gal4β FL activity range (EC50). The protocol: as §1, §2, §3

One may read the EC50 as the concentration giving half of the maximal effect.

Regarding `Cc1cc(C)c(S(=O)(=O)N(Cc2ccc(-c3cccc(S(=O)(=O)C(C)C(=O)O)c3)cc2)Cc2ccc(C(F)(F)F)o2)c(C)c1` (stereo not shown) [Example 5/1], the EC50 lay within 1000 to 10000 nM in assay [1], 100 to 1000 nM at LXRα full length (FL) and 100 to 1000 nM on LXRβ full length (FL). Further, the “behavior in FRET assay” value in assay [1] is recorded as “ia”.
In the case of `Cc1cc(C)c(S(=O)(=O)N(Cc2ccc(-c3cccc(S(=O)(=O)CC(=O)O)c3)cc2)Cc2ccc(F)cc2Cl)c(C)c1` [11/11], the EC50 lay in the range of 100 to 1000 nM in assay [1], 1000 to 10000 nM on LXRα full length (FL) and 100 to 1000 nM on LXRβ full length (FL). Also, the “behavior in FRET assay” value in assay [1] is “ag”.
Turning to `Cc1ccc2cccnc2c1S(=O)(=O)N(Cc1ccc(-c2cccc(C(C)(C)C(=O)NO)c2)cc1)Cc1ccc(C(F)(F)F)o1` [Example 30, N-Hydroxy-2-methyl-2-(4′-(((7-methyl-N-((5-(trifluoromethyl)furan-2-yl)methyl)quinoline)-8-sulfonamido)methyl)-[1,1′-biphenyl]-3-yl)propanamide], the EC50 in assay [1] was 100 to 1000 nM; at LXRα full length (FL), below 100 nM; at LXRβ full length (FL), below 100 nM. Besides, the “behavior in FRET assay” value in assay [1] is “ag”.
`CC(C)(C(=O)O)c1cccc(-c2ccc(CN(Cc3ccc(C(F)(F)F)o3)S(=N)(=O)c3cccc4ccccc34)cc2)c1` (stereo not shown) [Example 26, 2-Methyl-2-(4′-((N-((5-(trifluoromethyl)furan-2-yl)methyl)naphthalene-1-sulfonoamid-imidamido)methyl)-[1,1′-biphenyl]-3-yl)propanoic acid]: the EC50 is 100 to 1000 nM in assay [1], below 100 nM at LXRα full length (FL) and below 100 nM at LXRβ full length (FL). The “behavior in FRET assay” value in assay [1] is on record as “ia”.
As to `Cc1ccc2ccccc2c1S(=O)(=O)N(Cc1ccc(-c2cccc(S(=O)(=O)CC(=O)O)c2)cc1)Cc1ccc(C(F)(F)F)o1` [Example 10, 2-((4′-(((2-Methyl-N-((5-(trifluoromethyl)furan-2-yl)methyl)naphthalene)-1-sulfonamido)methyl)[1,1′-biphenyl]-3-yl)sulfonyl)acetic acid], the EC50 (in assay [1]; on LXRα full length (FL); on LXRβ full length (FL)) was 100 to 1000 nM each time. In addition, the “behavior in FRET assay” value in assay [1] is “ia”.
Take `Cc1cc(C)c(S(=O)(=O)N(CCc2ccc(C(F)(F)F)o2)Cc2ccc(-c3cccc(S(=O)(=O)CC(=O)O)c3)cc2)c(C)c1` [Example 17/1]: the EC50 (in assay [1]; at LXRα full length (FL); on LXRβ full length (FL)) was 1000 to 10000 nM each time. Moreover, the “behavior in FRET assay” value in assay [1] was “ia”.
In the case of `Cc1cc(C(F)(F)F)oc1CN(Cc1ccc(-c2cccc(C(C)(C)C(=O)O)c2)cc1)S(=O)(=O)c1c(C)ccc2ccccc12` [17/3], the EC50 (in assay [1]; on LXRα full length (FL); at LXRβ full length (FL)) was below 100 nM in each case. For the same compound, the “behavior in FRET assay” value in assay [1] is given as “ia”.
On to `Cc1cc(C)c(S(=O)(=O)N(Cc2ccc(C(F)(F)F)o2)Cc2sc(-c3cccc(C(C)(C)C(=O)O)c3)cc2Cl)c(C)c1` [10/6], for which the EC50 in assay [1] was 1000 to 10000 nM; on LXRα full length (FL) it was 100 to 1000 nM; at LXRβ full length (FL), below 100 nM. In addition, in assay [1], the “behavior in FRET assay” value is on record as “ag”.
For `COc1ccc2cccnc2c1S(=O)(=O)N(Cc1ccc(-c2cccc(C(C)(C)C(=O)O)c2)cc1)Cc1ccc(C(F)(F)F)o1` [10/19], the EC50 in assay [1] is 100 to 1000 nM; on LXRα full length (FL) it was below 100 nM; at LXRβ full length (FL) it was below 100 nM. In addition, in assay [1], the “behavior in FRET assay” value was “ag”.
`Cc1ccc2ccccc2c1[S+]([O-])N(Cc1ccc(-c2cccc(C(C)(C)C(=O)O)c2)cc1)Cc1ccc(C(F)(F)F)o1` (stereo not shown) [Example 27, 2-Methyl-2-(4′-((((2-methylnaphthalen-1-yl)sulfinyl)((5-(trifluoromethyl)furan-2-yl)methyl)amino)methyl)-[1,1′-biphenyl]-3-yl)propanoic acid]: the EC50 was 100 to 1000 nM in assay [1], below 100 nM at LXRα full length (FL) and below 100 nM on LXRβ full length (FL). Further, in assay [1], the “behavior in FRET assay” value was “ia”.
